From ChEMBL document CHEMBL4376834, “Discovery of 4H-Chromen-4-one Derivatives as a New Class of Selective Rho Kinase (ROCK) Inhibitors, which Showed Potent Activity in ex Vivo Diabetic Retinopathy Models” (J Med Chem, 2019)
pIC50: −log10 of the molar value.

Tests used:
[1] = target: Serine/threonine-protein kinase Nek7 (Homo sapiens, UniProt Q8TDX7); test: Inhibition of recombinant human NEK7 (2 to end residues) using FLAKSFGSPNRAYKK as substrate measured after 40 mins in presence of [gamma33P]ATP by radiometric scintillation counting analysis
[2] = target: Serine/threonine-protein kinase 33 (Homo sapiens, UniProt Q9BYT3); test: Inhibition of recombinant full-length human STK33 using myelin basic protein as substrate incubated for 40 mins in presence of [gamma33P]ATP by radiometric scintillation counting analysis
[3] = Apparent permeability in dog MDCK cells incubated for 90 mins by LC-MS analysis; assay type: ADME, cell-based, Canis lupus familiaris
[4] = target: Bone morphogenetic protein receptor type-2 (Homo sapiens, UniProt Q13873); test: Inhibition of human recombinant BMPR2 (172 to 734 residues) using myelin basic protein as substrate incubated for 120 mins in presence of [gamma-33ATP] by radiometric scintillation counting analysis
[5] = target: Mitogen-activated protein kinase kinase kinase 9 (Homo sapiens, UniProt P80192); test: Inhibition of recombinant human MLK1 (134 to 414 residues) using casein as substrate incubated for 40 mins in presence of [gamma-33ATP by radiometric scintillation counting analysis
[6] = target: Protein kinase C theta type (Homo sapiens, UniProt Q04759); test: Inhibition of recombinant full length human PKCtheta using histone H1 as substrate incubated for 40 mins in presence of [gamma33P]ATP by radiometric scintillation counting analysis
[7] = target: Serine/threonine-protein kinase 17A (Homo sapiens, UniProt Q9UEE5); test: Inhibition of recombinant full length human DRAK1 using KKLNRTLSFAEPG as substrate after 40 mins in presence of [gamma-33ATP] by radiometric scintillation counting analysis
[8] = target: Fibroblast growth factor receptor 3 (Homo sapiens, UniProt P22607); test: Inhibition of recombinant human FGFR3 (447 to 761 residues) using poly(Glu, Tyr) 4:1 as substrate after 40 mins in presence of [gamma-33ATP] by radiometric scintillation counting analysis
[9] = target: Serine/threonine-protein kinase 26 (Homo sapiens, UniProt Q9P289); test: Inhibition of recombinant human MST4 (4 to 304 residues) using RLGRDKYKTLRQI as substrate measured after 40 mins in presence of [gamma33P]ATP by radiometric scintillation counting analysis
Myotonin-protein kinase = Myotonin-protein kinase (Homo sapiens, UniProt Q09013); test: Inhibition of recombinant human DMPK (1 to 549 residues) using KKSRGDYMTMQIG as substrate after 40 mins in presence of [gamma-33ATP] by radiometric scintillation counting analysis
[10] = target: Cyclin-dependent kinase 14/Cyclin-Y (Homo sapiens, UniProt O94921); test: Inhibition of recombinant full length human CDK14/cyclinY in presence of [gamma-33ATP] by radiometric scintillation counting analysis; assay type: protein-complex assay
[11] = target: Dual specificity protein kinase CLK3 (Homo sapiens, UniProt P49761); test: Inhibition of recombinant full length human CLK3 using ERMRPRKRQGSVR as substrate incubated 40 mins in presence of [gamma-33ATP] by radiometric scintillation counting analysis
[12] = target: Serine/threonine-protein kinase MRCK alpha (Homo sapiens, UniProt Q5VT25); test: Inhibition of recombinant human MRCKalpha (1 to 473 residues) using KKRNRTLTV as substrate incubated for 40 mins in presence of [gamma-33ATP by radiometric scintillation counting analysis
[13] = target: cGMP-dependent protein kinase 1 (Homo sapiens, UniProt Q13976); test: Inhibition of recombinant full length human PKG1beta using RRRLSFAEPG as substrate incubated for 40 mins in presence of [gamma-33P]ATP by radiometric scintillation counting analysis
[14] = target: Serine/threonine-protein kinase D3 (Homo sapiens, UniProt O94806); test: Inhibition of recombinant full-length human PKD3 using KKLRRTLSVA as substrate incubated for 40 mins in presence of [gamma33P]ATP by radiometric scintillation counting analysis
[15] = target: Fibroblast growth factor receptor 4 (Homo sapiens, UniProt P22455); test: Inhibition of recombinant human FGFR4 (442 to 755 residues) using poly(Glu, Tyr) 4:1 as substrate after 40 mins in presence of [gamma-33ATP] by radiometric scintillation counting analysis
[16] = target: Tyrosine-protein kinase Fgr (Homo sapiens, UniProt P09769); test: Inhibition of recombinant human FGR (2 to end residues) using poly(Glu, Tyr) 4:1 as substrate after 40 mins in presence of [gamma-33ATP] by radiometric scintillation counting analysis
[17] = target: Tyrosine-protein kinase Fer (Homo sapiens, UniProt P16591); test: Inhibition of recombinant human FER (541 to end residues) using KKKSPGEYVNIEF as substrate after 40 mins in presence of [gamma-33ATP] by radiometric scintillation counting analysis
Rhodopsin kinase GRK1 = Rhodopsin kinase GRK1 (Homo sapiens, UniProt Q15835); test: Inhibition of recombinant full length human GRK1 using KKKKERLLDDRHD as substrate after 40 mins in presence of [gamma-33ATP] by radiometric scintillation counting analysis
[18] = target: Protein kinase C delta type (Homo sapiens, UniProt Q05655); test: Inhibition of recombinant human PKCdelta (2 to end residues) using ERMRPRKRQGSVRR as substrate incubated for 40 mins in presence of [gamma33P]ATP by radiometric scintillation counting analysis
[19] = Inhibition of recombinant human FLT4 V1128L/H1146R double mutant (800 to end residues) using GGEEEEYFELVKK as substrate after 40 mins in presence of [gamma-33ATP] by radiometric scintillation counting analysis
[20] = target: Testis-specific serine/threonine-protein kinase 1 (Homo sapiens, UniProt Q9BXA7); test: Inhibition of recombinant full-length human TSSK1 using KKKVSRSGLYRSP as substrate incubated for 40 mins in presence of [gamma33P]ATP by radiometric scintillation counting analysis
[21] = target: Rho-associated protein kinase 1 (Homo sapiens, UniProt Q13464); test: Inhibition of recombinant human ROCK1 (17 to 535 residues) using […] as substrate incubated for 40 mins in presence of [gamma-33P]ATP and 10 uM ATP by radiometric scintillation counting analysis
[22] = target: Protein kinase C iota type (Homo sapiens, UniProt P41743); test: Inhibition of recombinant full-length human PKCiota using ERMRPRKRQGSVRR as substrate incubated for 40 mins in presence of [gamma33P]ATP by radiometric scintillation counting analysis
[23] = target: Calcium/calmodulin-dependent protein kinase type 1G (Homo sapiens, UniProt Q96NX5); test: Inhibition of recombinant full length human CaMK1gamma using KKLRRTLSFAEPG as substrate incubated for 40 mins in presence of [gamma-33ATP] by radiometric scintillation counting analysis
[24] = target: Fibroblast growth factor receptor 1 (Homo sapiens, UniProt P11362, V561M); test: Inhibition of recombinant human FGFR1 V561M mutant (456 to 765 residues) using GGEEEEYFELVKK as substrate after 40 mins in presence of [gamma-33ATP] by radiometric scintillation counting analysis

Chain of Protein kinase C iota type (P41743 whole entry): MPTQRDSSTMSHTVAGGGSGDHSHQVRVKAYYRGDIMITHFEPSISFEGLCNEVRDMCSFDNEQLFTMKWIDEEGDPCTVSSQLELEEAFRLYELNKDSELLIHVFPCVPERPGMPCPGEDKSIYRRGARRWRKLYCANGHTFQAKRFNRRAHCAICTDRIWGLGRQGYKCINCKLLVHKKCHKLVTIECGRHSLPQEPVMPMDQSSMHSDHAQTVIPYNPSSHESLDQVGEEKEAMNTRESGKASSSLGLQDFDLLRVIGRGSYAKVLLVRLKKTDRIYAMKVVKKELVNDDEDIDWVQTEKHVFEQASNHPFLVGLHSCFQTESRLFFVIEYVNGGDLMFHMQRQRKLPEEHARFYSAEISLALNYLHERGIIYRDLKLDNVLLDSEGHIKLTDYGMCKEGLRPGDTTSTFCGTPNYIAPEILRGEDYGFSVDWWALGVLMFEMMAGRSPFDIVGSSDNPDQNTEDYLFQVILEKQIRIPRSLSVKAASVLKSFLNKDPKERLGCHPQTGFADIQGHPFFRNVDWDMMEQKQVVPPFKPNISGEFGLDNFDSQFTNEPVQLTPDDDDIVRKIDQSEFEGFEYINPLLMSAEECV
Chain of Protein kinase C theta type (Q04759 whole entry): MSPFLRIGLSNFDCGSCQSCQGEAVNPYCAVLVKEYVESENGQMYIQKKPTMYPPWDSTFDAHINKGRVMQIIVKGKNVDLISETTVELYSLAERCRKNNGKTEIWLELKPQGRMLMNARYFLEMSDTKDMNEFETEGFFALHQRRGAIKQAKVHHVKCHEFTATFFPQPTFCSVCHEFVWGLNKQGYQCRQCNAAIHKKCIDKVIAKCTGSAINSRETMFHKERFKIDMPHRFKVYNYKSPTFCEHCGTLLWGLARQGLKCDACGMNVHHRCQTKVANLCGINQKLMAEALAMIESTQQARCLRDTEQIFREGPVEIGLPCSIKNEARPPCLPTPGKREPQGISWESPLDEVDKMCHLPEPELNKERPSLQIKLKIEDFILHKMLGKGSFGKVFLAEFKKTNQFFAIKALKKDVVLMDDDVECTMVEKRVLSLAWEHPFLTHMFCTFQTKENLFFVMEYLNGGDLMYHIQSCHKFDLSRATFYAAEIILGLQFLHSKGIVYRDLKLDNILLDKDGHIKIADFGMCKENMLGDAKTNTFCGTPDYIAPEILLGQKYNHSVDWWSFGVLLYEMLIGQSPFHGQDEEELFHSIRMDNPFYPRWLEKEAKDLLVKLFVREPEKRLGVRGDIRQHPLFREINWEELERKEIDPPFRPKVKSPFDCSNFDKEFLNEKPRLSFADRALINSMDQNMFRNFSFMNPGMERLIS
Chain of Testis-specific serine/threonine-protein kinase 1 (Q9BXA7 whole entry, the tested form may be a part): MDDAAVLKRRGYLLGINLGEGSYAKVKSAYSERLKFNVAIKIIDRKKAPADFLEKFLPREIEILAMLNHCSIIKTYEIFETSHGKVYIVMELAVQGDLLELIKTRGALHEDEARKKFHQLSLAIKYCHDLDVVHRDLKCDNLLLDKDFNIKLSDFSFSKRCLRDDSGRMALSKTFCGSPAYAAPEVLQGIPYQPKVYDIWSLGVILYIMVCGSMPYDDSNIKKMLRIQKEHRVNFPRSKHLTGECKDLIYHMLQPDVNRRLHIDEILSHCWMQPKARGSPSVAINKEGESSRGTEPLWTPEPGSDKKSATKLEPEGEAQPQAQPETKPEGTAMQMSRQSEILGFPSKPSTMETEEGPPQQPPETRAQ
Chain of Protein kinase C delta type (Q05655 whole entry): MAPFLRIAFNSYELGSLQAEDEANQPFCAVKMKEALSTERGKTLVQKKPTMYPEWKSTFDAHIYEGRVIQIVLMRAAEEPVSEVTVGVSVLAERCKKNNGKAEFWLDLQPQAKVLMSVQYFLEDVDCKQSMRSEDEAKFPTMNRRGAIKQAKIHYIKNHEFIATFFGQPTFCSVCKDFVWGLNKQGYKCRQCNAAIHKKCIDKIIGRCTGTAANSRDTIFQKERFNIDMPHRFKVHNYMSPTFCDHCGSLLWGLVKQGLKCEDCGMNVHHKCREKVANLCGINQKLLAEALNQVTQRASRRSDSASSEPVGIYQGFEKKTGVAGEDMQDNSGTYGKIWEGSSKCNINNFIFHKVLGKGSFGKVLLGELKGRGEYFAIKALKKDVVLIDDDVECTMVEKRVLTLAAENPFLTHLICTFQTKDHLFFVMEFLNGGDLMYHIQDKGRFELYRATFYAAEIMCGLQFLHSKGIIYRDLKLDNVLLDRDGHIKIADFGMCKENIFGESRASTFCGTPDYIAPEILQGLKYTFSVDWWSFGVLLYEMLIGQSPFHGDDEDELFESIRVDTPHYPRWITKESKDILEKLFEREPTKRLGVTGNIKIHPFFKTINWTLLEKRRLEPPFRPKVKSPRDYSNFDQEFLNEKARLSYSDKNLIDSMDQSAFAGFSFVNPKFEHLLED
Chain of Serine/threonine-protein kinase Nek7 (Q8TDX7 whole entry): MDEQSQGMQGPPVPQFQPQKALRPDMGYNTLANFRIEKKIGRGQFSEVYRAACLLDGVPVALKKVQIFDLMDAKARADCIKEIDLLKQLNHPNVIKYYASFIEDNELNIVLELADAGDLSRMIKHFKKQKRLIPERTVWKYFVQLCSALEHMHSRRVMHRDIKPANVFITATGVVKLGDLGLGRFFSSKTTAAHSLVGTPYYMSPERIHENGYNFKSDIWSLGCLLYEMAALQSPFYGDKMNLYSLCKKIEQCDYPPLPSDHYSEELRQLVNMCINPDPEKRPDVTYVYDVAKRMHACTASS
Chain of cGMP-dependent protein kinase 1 (Q13976 whole entry): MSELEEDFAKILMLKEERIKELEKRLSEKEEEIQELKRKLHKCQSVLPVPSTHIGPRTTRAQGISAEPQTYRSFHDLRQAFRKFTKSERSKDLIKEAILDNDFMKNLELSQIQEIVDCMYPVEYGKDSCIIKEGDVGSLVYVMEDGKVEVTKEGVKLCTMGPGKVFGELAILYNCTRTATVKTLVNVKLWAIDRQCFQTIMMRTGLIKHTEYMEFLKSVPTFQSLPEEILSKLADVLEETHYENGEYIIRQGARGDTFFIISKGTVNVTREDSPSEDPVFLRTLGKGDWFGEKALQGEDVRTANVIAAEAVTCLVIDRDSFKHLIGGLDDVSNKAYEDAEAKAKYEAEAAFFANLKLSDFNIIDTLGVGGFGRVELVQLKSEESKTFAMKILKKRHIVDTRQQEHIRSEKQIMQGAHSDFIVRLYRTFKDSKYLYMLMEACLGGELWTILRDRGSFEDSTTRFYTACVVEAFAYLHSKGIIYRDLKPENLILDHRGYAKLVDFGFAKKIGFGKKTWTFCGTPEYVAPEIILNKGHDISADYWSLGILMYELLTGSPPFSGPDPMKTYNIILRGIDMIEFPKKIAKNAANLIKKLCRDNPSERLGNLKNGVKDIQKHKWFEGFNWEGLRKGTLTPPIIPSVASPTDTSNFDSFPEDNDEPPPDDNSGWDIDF
Chain of Fibroblast growth factor receptor 4 (P22455 whole entry, the tested form may be a part): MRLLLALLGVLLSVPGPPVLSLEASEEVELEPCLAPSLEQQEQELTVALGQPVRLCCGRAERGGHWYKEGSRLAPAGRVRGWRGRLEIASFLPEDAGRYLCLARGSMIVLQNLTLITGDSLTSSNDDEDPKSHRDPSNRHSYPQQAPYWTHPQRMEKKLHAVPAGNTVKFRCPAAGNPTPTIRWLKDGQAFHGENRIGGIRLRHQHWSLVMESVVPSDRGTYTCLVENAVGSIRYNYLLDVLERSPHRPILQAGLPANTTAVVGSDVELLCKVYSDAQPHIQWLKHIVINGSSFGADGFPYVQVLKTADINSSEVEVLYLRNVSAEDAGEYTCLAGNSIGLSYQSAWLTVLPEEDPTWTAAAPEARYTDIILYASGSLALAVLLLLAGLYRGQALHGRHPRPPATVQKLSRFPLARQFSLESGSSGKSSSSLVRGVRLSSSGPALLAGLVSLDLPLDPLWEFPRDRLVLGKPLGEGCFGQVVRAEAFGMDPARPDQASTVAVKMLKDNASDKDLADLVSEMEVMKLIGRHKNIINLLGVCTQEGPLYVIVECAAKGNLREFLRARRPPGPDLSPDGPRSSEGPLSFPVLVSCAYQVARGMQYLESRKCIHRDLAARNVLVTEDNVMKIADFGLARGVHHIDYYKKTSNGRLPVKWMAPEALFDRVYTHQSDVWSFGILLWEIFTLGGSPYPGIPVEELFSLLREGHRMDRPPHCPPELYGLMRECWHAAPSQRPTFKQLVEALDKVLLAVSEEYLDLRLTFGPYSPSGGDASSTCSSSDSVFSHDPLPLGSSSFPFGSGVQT
Chain of Serine/threonine-protein kinase 26 (Q9P289 whole entry, the tested form may be a part): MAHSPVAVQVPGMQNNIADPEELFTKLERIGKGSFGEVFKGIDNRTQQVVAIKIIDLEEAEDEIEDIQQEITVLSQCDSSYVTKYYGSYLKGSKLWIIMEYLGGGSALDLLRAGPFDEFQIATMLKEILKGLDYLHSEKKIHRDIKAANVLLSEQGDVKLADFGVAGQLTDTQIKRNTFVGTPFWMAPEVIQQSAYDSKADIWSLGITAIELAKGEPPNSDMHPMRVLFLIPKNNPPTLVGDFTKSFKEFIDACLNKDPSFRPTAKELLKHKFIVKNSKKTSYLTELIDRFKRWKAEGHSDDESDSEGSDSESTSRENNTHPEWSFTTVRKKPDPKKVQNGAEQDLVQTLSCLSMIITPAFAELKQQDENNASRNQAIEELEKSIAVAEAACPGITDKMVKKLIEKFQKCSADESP
Chain of Serine/threonine-protein kinase 17A (Q9UEE5 whole entry, the tested form may be a part): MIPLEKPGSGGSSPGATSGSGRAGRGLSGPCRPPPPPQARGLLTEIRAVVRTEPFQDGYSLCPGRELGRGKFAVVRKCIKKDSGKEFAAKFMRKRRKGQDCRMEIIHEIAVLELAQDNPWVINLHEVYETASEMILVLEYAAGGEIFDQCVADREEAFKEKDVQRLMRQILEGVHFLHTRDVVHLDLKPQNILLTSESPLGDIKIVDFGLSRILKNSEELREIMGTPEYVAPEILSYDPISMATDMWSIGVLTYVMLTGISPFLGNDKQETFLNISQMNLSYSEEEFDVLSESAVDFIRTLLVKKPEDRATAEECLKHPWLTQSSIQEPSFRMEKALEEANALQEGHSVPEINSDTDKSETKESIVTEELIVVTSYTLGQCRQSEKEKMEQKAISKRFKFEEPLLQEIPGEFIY

CN(C)c1ccc(C(=O)Nc2cccc(NC(=O)COc3ccc4c(=O)ccoc4c3)c2)cc1
pIC50 [1]: < 5.00 | pIC50 [2]: < 5.00 | Papp at 1.5 h [3]: 9.41 ×10⁻⁶ cm/s | pIC50 [4]: < 5.00 | pIC50 [5]: < 5.00 | pIC50 [6]: < 5.00 | pIC50 [7]: < 5.00 | pIC50 [8]: < 5.00 | pIC50 [9]: < 5.00 | pIC50 (Myotonin-protein kinase): < 5.00 | pIC50 [10]: < 5.00 | pIC50 [11]: < 5.00 | pIC50 [12]: < 5.00 | pIC50 [13]: 6.18 | pIC50 [14]: < 5.00 | pIC50 [15]: < 5.00 | pIC50 [16]: < 5.00 | pIC50 [17]: < 5.00 | pIC50 (Rhodopsin kinase GRK1): < 5.00 | pIC50 [18]: < 5.00 | pIC50 [19]: < 5.00 | pIC50 [20]: < 5.00 | pIC50 [21]: 7.85 | pIC50 [22]: < 5.00 | pIC50 [23]: < 5.00 | pIC50 [24]: < 5.00
